Laboratory results published in US12378248B2 (The United States of America, as represented by the …, priority 2018, dated 2025).
Where two headings read alike, the source gives them in different places.

Tests used:
mA1AR = target: T1, mA1AR (Mus musculus, UniProt Q60612); experiment: Adenosine receptor binding, mA1AR
T1 sequence (Q60612 1-326): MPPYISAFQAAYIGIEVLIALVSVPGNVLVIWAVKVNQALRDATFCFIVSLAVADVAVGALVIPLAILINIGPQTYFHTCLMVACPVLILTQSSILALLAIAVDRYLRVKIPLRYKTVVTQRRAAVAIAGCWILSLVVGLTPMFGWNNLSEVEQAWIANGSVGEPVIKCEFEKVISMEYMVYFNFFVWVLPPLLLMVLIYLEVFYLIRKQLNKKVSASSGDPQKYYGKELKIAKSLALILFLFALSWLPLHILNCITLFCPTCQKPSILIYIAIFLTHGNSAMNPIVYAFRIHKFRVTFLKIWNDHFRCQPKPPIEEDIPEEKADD

mA3AR = target: T2, mA3AR (Mus musculus, UniProt Q61618); experiment: Adenosine receptor binding, mA3AR; settings: (m); Ki; read-out: A3AR % inhibition or Ki (converted)
T2 sequence (Q61618 1-319): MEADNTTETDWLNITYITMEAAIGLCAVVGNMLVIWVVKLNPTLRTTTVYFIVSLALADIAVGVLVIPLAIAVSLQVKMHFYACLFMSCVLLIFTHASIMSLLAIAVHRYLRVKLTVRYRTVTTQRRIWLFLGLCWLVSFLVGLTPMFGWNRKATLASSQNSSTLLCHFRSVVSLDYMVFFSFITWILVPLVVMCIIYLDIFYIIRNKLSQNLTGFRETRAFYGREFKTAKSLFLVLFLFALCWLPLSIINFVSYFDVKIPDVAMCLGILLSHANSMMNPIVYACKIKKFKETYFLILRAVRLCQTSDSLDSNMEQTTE

wild-type C57BL/6J mice [1] = experiment: Hypothermia (Tb by telemetry) after ip dosing; format: in vivo, mouse; settings: average from dosing to 60 min, mean±SD
Experimental: (§1) Compounds were dosed ip. Tb and activity were measured by telemetry and the averages from dosing to 60 min were calculated. […] Data are for the highest dose used and are mean±SD from 3 to 22 mice/group (usually 5-7). P values are unpaired t-Test vs vehicle-treated controls assayed simultaneously. Vehicle data are mean±SD from all (n=83) vehicle treated mice.

wild-type C57BL/6J mice [2] = experiment: Locomotor activity by telemetry after ip dosing; format: in vivo, mouse; settings: average from dosing to 60 min, mean±SD
Experimental: as §1

[3] = test system: off-target receptors (PDSP); experiment: Off-target interactions determined by the PDSP, whole screen; format: binding, human; settings: no off-target interaction listed
hA1AR = target: T3, hA1AR (Homo sapiens, UniProt P30542); experiment: Radioligand binding in membranes of CHO cells expressing hA1AR, [3H]N6-R-phenylisopropyladenosine; settings: read-out: A1AR % inhibition or Ki; for Ki: (h)
T3 construct: expressed in transfected cells; host or cells: CHO
T3 sequence (P30542 1-326): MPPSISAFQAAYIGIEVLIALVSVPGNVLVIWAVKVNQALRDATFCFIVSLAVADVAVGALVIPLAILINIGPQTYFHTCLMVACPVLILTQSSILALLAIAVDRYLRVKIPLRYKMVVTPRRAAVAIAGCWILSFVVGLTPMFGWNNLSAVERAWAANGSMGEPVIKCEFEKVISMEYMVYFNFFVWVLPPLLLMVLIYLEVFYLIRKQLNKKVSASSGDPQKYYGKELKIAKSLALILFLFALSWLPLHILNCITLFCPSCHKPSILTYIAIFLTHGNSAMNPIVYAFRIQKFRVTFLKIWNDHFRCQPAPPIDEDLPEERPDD

hA3AR = target: T4, hA3AR (Homo sapiens, UniProt P0DMS8); experiment: Radioligand binding in membranes of CHO cells expressing hA3AR; settings: read-out: A3AR % inhibition or Ki; for Ki: (h)
T4 construct: expressed in transfected cells; host or cells: CHO
T4 sequence (P0DMS8 1-318): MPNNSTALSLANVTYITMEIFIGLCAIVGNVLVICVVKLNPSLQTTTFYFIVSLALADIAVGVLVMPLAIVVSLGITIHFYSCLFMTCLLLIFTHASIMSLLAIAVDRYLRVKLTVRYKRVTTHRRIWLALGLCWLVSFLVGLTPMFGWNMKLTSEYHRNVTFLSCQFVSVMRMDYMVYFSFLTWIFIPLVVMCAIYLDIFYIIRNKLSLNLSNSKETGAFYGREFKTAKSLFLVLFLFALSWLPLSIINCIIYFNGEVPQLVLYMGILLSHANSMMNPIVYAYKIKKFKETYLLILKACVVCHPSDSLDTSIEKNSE

serotonin receptor 5HT2C = target: T5, serotonin receptor 5HT2C (Homo sapiens, UniProt P28335); experiment: Off-target interaction determined by the PDSP; format: binding; settings: read-out: Off-target, receptor (h, unless noted) (Ki, μM): 5HT2C
T5 sequence (P28335 33-458): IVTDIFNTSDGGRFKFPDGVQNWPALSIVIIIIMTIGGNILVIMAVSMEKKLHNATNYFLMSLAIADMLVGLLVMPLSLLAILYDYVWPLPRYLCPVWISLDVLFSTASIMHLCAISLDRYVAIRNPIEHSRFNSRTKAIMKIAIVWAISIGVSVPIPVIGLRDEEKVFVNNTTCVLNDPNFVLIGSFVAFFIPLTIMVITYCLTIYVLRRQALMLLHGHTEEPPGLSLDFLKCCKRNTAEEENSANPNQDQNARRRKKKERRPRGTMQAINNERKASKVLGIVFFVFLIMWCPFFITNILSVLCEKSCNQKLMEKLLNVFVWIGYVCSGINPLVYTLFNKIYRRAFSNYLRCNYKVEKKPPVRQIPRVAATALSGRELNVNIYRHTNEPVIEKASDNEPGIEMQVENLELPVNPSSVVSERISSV

serotonin receptor 5HT2B = serotonin receptor 5HT2B (Homo sapiens, UniProt P41595); experiment: Off-target interaction determined by the PDSP; format: binding; settings: read-out: Off-target, receptor (h, unless noted) (Ki, μM): 5HT2B
hA2AAR = target: T6, hA2AAR (Homo sapiens, UniProt P29274); experiment: Radioligand binding in membranes of HEK293 cells expressing hA2AAR; settings: read-out: A2AAR % inhibition; for Ki: (h), values without % sign (Ki)
T6 construct: expressed in transfected cells; host or cells: HEK293

sigma receptor σ1 = sigma receptor σ1 (Homo sapiens, UniProt Q99720); experiment: Off-target interaction determined by the PDSP; format: binding; settings: read-out: Off-target, receptor (h, unless noted) (Ki, μM): σ1
sigma receptor σ2 = sigma receptor σ2 (UniProt Q5BJF2); experiment: Off-target interaction determined by the PDSP; format: binding, human; settings: read-out: Off-target, receptor (h, unless noted) (Ki, μM): σ2
mA2AAR = mA2AAR (Mus musculus, UniProt Q60613); experiment: Adenosine receptor binding, mA2AAR; settings: read-out: A2AAR % inhibition (converted)
[4] = target: TSPO (translocator protein) (UniProt P30536); experiment: Off-target interaction determined by the PDSP; format: binding, human; settings: for Ki: read-out: Off-target, receptor (h, unless noted) (Ki, μM): TSPO
[5] = (m), Ki, read-out: A1AR % inhibition or Ki (converted)

T6 sequence (P29274 whole entry): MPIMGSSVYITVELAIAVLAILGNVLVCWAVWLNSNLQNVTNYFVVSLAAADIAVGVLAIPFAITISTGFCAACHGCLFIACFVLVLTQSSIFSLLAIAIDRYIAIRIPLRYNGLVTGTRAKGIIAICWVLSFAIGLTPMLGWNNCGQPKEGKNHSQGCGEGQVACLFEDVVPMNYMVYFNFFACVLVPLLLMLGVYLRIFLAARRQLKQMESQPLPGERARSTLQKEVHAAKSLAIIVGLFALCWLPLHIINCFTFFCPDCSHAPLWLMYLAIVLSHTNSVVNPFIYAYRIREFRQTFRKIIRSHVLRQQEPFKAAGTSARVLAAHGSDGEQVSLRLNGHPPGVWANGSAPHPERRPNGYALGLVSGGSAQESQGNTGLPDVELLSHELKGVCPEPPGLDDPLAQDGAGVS
Sequence of sigma receptor σ1 (Q99720 whole entry): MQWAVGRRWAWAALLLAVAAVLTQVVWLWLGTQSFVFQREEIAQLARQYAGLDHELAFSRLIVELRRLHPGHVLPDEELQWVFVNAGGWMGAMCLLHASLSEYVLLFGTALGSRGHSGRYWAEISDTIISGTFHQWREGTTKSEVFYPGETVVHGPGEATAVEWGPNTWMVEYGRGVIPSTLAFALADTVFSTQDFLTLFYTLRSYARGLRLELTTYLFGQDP
Sequence of serotonin receptor 5HT2B (P41595 whole entry): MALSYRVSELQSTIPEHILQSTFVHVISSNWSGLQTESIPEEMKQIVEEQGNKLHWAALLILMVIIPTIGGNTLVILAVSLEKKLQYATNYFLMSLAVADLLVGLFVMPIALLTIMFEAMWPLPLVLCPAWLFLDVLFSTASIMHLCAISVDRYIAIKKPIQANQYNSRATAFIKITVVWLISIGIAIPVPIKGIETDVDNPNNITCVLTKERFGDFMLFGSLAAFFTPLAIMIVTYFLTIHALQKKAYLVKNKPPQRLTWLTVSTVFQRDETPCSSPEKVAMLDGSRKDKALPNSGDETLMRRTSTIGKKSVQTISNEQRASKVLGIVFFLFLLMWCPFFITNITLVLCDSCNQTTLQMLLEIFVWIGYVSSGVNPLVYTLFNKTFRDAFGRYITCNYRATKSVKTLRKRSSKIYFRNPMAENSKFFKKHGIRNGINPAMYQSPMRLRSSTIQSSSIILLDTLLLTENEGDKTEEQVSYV
Sequence of mA2AAR (Q60613 whole entry): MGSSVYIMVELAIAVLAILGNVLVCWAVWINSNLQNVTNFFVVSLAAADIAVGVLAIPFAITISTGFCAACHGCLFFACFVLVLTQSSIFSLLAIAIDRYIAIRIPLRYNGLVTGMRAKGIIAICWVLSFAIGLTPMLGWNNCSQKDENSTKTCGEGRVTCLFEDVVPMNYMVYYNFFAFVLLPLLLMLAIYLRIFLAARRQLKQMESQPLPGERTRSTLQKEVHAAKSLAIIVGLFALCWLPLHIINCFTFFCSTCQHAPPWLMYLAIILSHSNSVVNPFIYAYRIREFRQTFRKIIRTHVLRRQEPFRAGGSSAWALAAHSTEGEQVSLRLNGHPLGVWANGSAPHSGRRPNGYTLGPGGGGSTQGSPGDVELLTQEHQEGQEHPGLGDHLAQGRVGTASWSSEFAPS

Compound	Ki (mA1AR; [5]) [nM]	Ki (mA3AR) [nM]	Ki (hA1AR) [nM]	Ki (hA3AR) [nM]	Ki (hA2AAR) [nM]	inhibition at 10 µM (hA2AAR) [%]	also measured
O[C@@H]1[C@H](O)[C@@H](CCl)O[C@H]1n1cnc2c(NC3CC4CCC3C4)ncnc21 (some centres unmarked) [Compound 4, reference compound]	0.2	2410					Tb (° C.) (wild-type C57BL/6J mice [1]; 3 mg/kg ip): 32.2 ± 1.3 °C; Activity (counts) (wild-type C57BL/6J mice [2]; 3 mg/kg ip): 2.8 ± 1.6 counts
CCNC(=O)[C@H]1O[C@@H](n2cnc3c(N)ncnc32)[C@H](O)[C@@H]1O [Compound 16, reference compound]							Off-target, receptor (h, unless noted) [3]: none
CCOC(=O)[C@@]12C[C@@H]1[C@@H](n1cnc3c(NC(C4CC4)C4CC4)nc(Cl)nc31)[C@H](O)[C@@H]2O [Compound 32]			360 ± 74	236 ± 41			Ki (serotonin receptor 5HT2C): 0.054 µM; Ki (serotonin receptor 5HT2B): 0.015 µM
Nc1nc(Cl)nc2c1ncn2[C@H]1[C@H](O)[C@H](O)[C@]2(CCl)C[C@H]12 [Compound 22]			7.61 ± 0.73	253 ± 148	1750 ± 290		Ki (sigma receptor σ1): 1.97 µM; Ki (sigma receptor σ2): 2.55 µM
O=C(NC1CC1)[C@@]12C[C@@H]1[C@@H](n1cnc3c(N[C@H]4C[C@H]5CC[C@@H]4C5)nc(Cl)nc31)[C@H](O)[C@@H]2O [Compound 36, (1S,2R,3S,4R,5S)-4-(6-(((1R,2S,4S)-bicyclo[2.2.1]heptan-2-yl)amino)-2-chloro-9H-purin-9-yl)-N-cyclopropyl-2,3-dihydroxybicyclo[3.1.0]hexane-1-carboxamide]	0.45	29.5	1.22 ± 0.05	59 ± 17.8	520 ± 119		Ki (mA2AAR; (m), values without % sign (Ki)): 2650 nM; Ki (serotonin receptor 5HT2B): 1.57 µM
CNC(=O)[C@@]12C[C@@H]1[C@@H](n1cnc3c(NC4CCCC4)nc(Cl)nc31)[C@H](O)[C@@H]2O [Compound 6e, reference compound]	0.68	3.46 ± 0.13	18.3 ± 6.3	3.7 ± 0.9	3250 ± 300		Ki (sigma receptor σ1): 1.55 µM; Ki (serotonin receptor 5HT2B): 0.012 µM
O[C@@H]1[C@H](O)[C@@H]2C[C@@H]2[C@H]1n1cnc2c(NC(C3CCC3)C3CCC3)nc(Cl)nc21 [Compound 19]						46 ± 6	Ki [4]: 2.38 µM
CCSC[C@H]1O[C@@H](n2cnc3c(NC(C4CCC4)C4CCC4)ncnc32)[C@H](O)[C@@H]1O [Compound 11, (2R,3R,4S,5S)-2-(6-((Dicyclobutylmethyl)amino)-9H-purin-9-yl)-5-((ethylthio)methyl)tetrahydrofuran-3,4-diol]	3.58	718	63.4 ± 12.1	6220 ± 1480		30 ± 5	Off-target: TSPO (% inhib.) ([4]; footnote j not given): 90%; Ki (sigma receptor σ1): 0.626 µM; Ki (sigma receptor σ2): 0.642 µM
O[C@@H]1[C@H](O)[C@@H](CCl)O[C@H]1n1cnc2c(NC(C3CCC3)C3CCC3)ncnc21 [Compound 10, (2S,3S,4R,5R)-2-(Chloromethyl)-5-(6-((dicyclobutylmethyl)amino)-9H-purin-9-yl)tetrahydrofuran-3,4-diol]	0.71	2110	4.9 ± 0.87	16600	5200		Ki [4]: 3.98 µM; Ki (sigma receptor σ1): 0.69 µM; Ki (sigma receptor σ2): 0.662 µM; Tb (° C.) (wild-type C57BL/6J mice [1]; 10 mg/kg ip): 35.8 ± 0.1 °C; Activity (counts) (wild-type C57BL/6J mice [2]; 10 mg/kg ip): 20.5 ± 4.6 counts
Nc1ncnc2c1ncn2[C@@H]1O[C@H](C(=O)NCCO)[C@@H](O)[C@H]1O [Compound 18, reference compound]			12.8	9450	505 ± 30		
O[C@@H]1[C@H](O)[C@@H]2C[C@@H]2[C@H]1n1cnc2c(NC(C3CC3)C3CC3)nc(Cl)nc21 [Compound 7, reference compound]							Tb (° C.) (wild-type C57BL/6J mice [1]; 3 mg/kg ip): 33.4 ± 1.7 °C; Activity (counts) (wild-type C57BL/6J mice [2]; 3 mg/kg ip): 5.5 ± 4.1 counts
CNC(=O)[C@@]12C[C@@H]1[C@@H](n1cnc3c(NC(C4CC4)C4CC4)nc(Cl)nc31)[C@H](O)[C@@H]2O [Compound 34]			110 ± 14	34 ± 11	4320 ± 1870		Ki (serotonin receptor 5HT2C): 0.749 µM; Ki (serotonin receptor 5HT2B): 0.023 µM
OC[C@H]1O[C@@H](n2cnc3c(NC(C4CCC4)C4CCC4)nc(Cl)nc32)[C@H](O)[C@@H]1O [Compound 12, (2R,3R,4R,5R)-2-(2-Chloro-6-((dicyclobutylmethyl)amino)-9H-purin-9-yl)-5-(hydroxymethyl)tetrahydrofuran-3,4-diol]		653	17.8 ± 8.7	13200	2550 ± 540		Ki (mA1AR; Table 7, repeats the binding tables, read-out: Binding Ki for mA1AR): 0.65 nM; Ki (serotonin receptor 5HT2C): 1.45 µM
O[C@H]1[C@H](n2cnc3c(NC(C4CCC4)C4CCC4)nc(Cl)nc32)[C@H]2C[C@@]2(CSc2ccccc2F)[C@H]1O [Compound 28, (1S,2R,3S,4R,5S)-4-(2-Chloro-6-((dicyclobutylmethyl)amino)-9H-purin-9-yl)-1-(((2-fluorophenyl)thio)methyl)bicyclo[3.1.0]hexane-2,3-diol]	2490	7440		9750 ± 4030		22 ± 5	inhibition at 10 µM (hA1AR): 45 ± 4%; inhibition at 10 µM (mA2AAR): 20%; Ki (sigma receptor σ2): 0.583 µM; Ki (serotonin receptor 5HT2C): 1.46 µM; Ki (serotonin receptor 5HT2B): 0.334 µM
CCOC(=O)[C@@]12C[C@@H]1[C@@H](n1cnc3c(NC(C4CC4)C4CC4)nc(Cl)nc31)[C@@H]1OC(C)(C)O[C@@H]12 [Compound 33]						15 ± 2	inhibition at 10 µM (hA1AR): 49 ± 9%; inhibition at 10 µM (hA3AR): 41 ± 6%
NC(=O)c1ncn([C@@H]2O[C@H](CO)[C@@H](O)[C@H]2O)n1 [Compound 38, ribavirin, reference compound]						23 ± 6	inhibition at 10 µM (hA3AR): 16 ± 5%
Nc1ncnc2c1ncn2[C@@H]1O[C@H](C(=O)O)[C@@H](O)[C@H]1O [Compound 14]						11 ± 4	inhibition at 10 µM (hA1AR): 24 ± 4%; inhibition at 10 µM (hA3AR): 32%; Ki (sigma receptor σ1): 1.48 µM; Ki (sigma receptor σ2): 0.796 µM
